Like-named read-outs stand apart in the source and are kept apart here.
Key:
[1] = biological target: T1, Drosophila OR85b (Drosophila melanogaster, UniProt Q9VHQ7); test: Calcium ion fluorescence (GCaMP6) assay, OR85b stable HEK293 cell line; assay type: cell-based; conditions: for activation at 1 µM / activation at 10 µM / activation at 100 µM: HEK293, read-out: OR85b response (VUAA1-normalized response); for Average response: OR85b cell line, VUAA1-normalized response, mean of biological replicates
T1 construct: expressed in transfected cells
T1 sequence (Q9VHQ7 1-390): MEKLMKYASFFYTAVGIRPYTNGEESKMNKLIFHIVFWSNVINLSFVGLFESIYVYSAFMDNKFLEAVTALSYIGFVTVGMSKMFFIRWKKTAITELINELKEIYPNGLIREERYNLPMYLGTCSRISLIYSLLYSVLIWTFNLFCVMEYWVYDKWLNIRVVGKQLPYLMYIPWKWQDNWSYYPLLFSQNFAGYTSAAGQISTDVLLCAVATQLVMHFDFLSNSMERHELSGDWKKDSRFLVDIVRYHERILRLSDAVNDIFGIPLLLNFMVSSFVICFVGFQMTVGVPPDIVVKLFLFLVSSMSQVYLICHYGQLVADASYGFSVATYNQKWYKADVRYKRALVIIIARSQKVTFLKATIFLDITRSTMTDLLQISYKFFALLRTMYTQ
T1 sequence (Q9VNB5 1-486 partner): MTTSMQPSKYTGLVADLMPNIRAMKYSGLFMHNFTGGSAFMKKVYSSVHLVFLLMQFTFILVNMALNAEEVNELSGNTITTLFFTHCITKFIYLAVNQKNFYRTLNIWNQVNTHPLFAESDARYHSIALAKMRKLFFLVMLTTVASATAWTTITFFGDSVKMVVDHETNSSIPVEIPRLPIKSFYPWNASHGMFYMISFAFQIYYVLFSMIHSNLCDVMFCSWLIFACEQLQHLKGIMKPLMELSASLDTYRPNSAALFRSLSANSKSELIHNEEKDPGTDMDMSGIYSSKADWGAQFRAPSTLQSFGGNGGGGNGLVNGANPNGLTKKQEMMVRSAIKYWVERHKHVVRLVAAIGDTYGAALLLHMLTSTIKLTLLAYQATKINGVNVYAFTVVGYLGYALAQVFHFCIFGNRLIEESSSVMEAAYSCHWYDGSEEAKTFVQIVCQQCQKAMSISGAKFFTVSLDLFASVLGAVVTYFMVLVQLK
How it was run: (§1)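 Responses are VUAA1-normalized ΔF: each VOC-evoked calcium signal, (FMAX−F0)/F0 over 30 s after injection, divided by the same line's mean 50 µM VUAA1 response. Cells were doxycycline-induced HEK293 with GCaMP6 and the cognate Drosophila OR, in HEPES buffer pH 7.3; ligands tested 0.01–100 μM.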

[2] = biological target: T2, Drosophila OR98a (Drosophila melanogaster, UniProt Q9VAZ3); test: Calcium ion fluorescence (GCaMP6) assay, OR98a stable HEK293 cell line; assay type: cell-based; conditions: for Average response: OR98a cell line, average of biological replicates, fraction of VUAA1 response
T2 construct: expressed in transfected cells
T2 sequence (Q9VAZ3 1-397): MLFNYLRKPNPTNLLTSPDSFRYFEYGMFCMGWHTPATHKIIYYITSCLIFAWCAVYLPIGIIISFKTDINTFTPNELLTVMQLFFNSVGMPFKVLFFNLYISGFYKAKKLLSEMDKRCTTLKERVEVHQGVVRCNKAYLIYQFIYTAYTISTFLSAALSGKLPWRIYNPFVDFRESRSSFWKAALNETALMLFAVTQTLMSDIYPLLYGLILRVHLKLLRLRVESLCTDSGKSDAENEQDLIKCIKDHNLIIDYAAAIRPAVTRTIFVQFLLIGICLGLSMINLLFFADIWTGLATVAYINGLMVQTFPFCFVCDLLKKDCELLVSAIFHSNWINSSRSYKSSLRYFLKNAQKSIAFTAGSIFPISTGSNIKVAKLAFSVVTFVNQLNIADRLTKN
T2 sequence (Q9VNB5 1-486 partner): T1 sequence (Q9VNB5 1-486 partner)
How it was run: as §1

[3] = concentration 1, normalized fluorescence change, values below 0.05 threshold given as 0
[4] = concentration 10, normalized fluorescence change, values below 0.05 threshold given as 0
[5] = concentration 100, normalized fluorescence change, values below 0.05 threshold given as 0
[6] = HEK293, read-out: Average response
[7] = HEK293, read-out: OR98a Average response (VUAA1-normalized)
[8] = HEK293, read-out: OR98a response (VUAA1-normalized response)
[9] = ligand concentration 1 (unit not given), threshold 0.05, below shown as 0
[10] = ligand concentration 10 (unit not given), threshold 0.05, below shown as 0
[11] = ligand concentration 100 (unit not given), threshold 0.05, below shown as 0

SMILES	activation at 1 µM [1] [%]	activation at 10 µM [1] [%]	activation at 100 µM [1] [%]	Average response ([1]; cc. 1 µM)	Average response ([1]; cc. 10 µM)	Average response ([1]; cc. 100 µM)	DF norm AVERAGE OR85b [1, 3]	DF norm AVERAGE OR85b [1, 4]	DF norm AVERAGE OR85b [1, 5]	activation at 1 µM [2, 6] [%]	activation at 10 µM [2, 6] [%]	activation at 100 µM [2, 6] [%]	activation at 1 µM [2, 8] [%]	activation at 10 µM [2, 8] [%]	activation at 100 µM [2, 8] [%]	DF norm AVERAGE OR98a [2, 3]	DF norm AVERAGE OR98a [2, 4]	DF norm AVERAGE OR98a [2, 5]	DF norm AVERAGE OR85b [1, 9]	DF norm AVERAGE OR85b [1, 10]	also measured
CCCCC(C)O (stereo not drawn) [2-hexanol]	0	0	0	0.05	0.00	0.00	0	0	0	0	0	14	0	0	14	0	0	0.1401			activation at 1 µM [2, 7]: 0%; activation at 10 µM [2, 7]: 0%; activation at 100 µM [2, 7]: 14%
CCCCCCCCCC=O [decanal]	0	0	0	0.00	0.0324	0.00				3	0	0	0	0	0				0	0	DF norm AVERAGE OR85b [1, 11]: 0; DF norm AVERAGE OR98a [2, 9]: 0; DF norm AVERAGE OR98a [2, 10]: 0; DF norm AVERAGE OR98a [2, 11]: 0
C=CC(O)C/C=C\CC (stereo not drawn) [(5Z)-octa-1,5-dien-3-ol]	7	9	0	0.07	0.09	0.00	0.07163	0.08739	0	0	8	7	0	8	7	0	0.08127	0.07281			
CC/C=C/CCO [e3-hexenol]				0.00	0.00	0.0284													0	0	DF norm AVERAGE OR85b [1, 11]: 0; Average response ([2]; cc. 1 µM): 0.00; Average response ([2]; cc. 10 µM): 0.00; Average response ([2]; cc. 100 µM): 0.00; DF norm AVERAGE OR98a [2, 9]: 0; DF norm AVERAGE OR98a [2, 10]: 0; DF norm AVERAGE OR98a [2, 11]: 0
